Here are results for two compounds from US11919860B1 (priority 2023, dated 2024).

For the assay, the system named is Mycobacterium tuberculosis H37Rv (ATCC: 25177). The assay can be described thus: Anti-tubercular activity, colorimetric Resazurin Microplate Assay (REMA). Format: cell-based. The note with it: 192 h, read-out: Anti-tubercular activity against Mycobacterium tuberculosis H37Rv (MIC).

In general, MIC refers to the smallest concentration in the dilution series that meets the test's criterion for growth inhibition.

With `CC(C)OC(=O)c1cc[n+](CC(=O)c2ccccc2)cc1.[Br-]` [Compound 4a, 4-(Isopropoxycarbonyl)-1-(2-oxo-2-phenylethyl)pyridin-1-ium Bromide], the MIC was 0.5 mg/L.
The same measure for `CC(C)OC(=O)c1cc[n+](CC(=O)c2ccc(F)cc2)cc1.[Br-]` [Compound 4b, 1-(2-(4-Fluorophenyl)-2-oxoethyl)-4-(isopropoxycarbonyl)pyridin-1-ium bromide]: 1 mg/L.
